Experimental data published in patent US8349877B2, “Ternary fungicidal compositions comprising boscalid and chlorothalonil” (BASF SE, priority 2007, dated 2013).
Like-named read-outs stand apart in the source and are kept apart here.

Assays:
[1] = system: Colleotrichum truncatum; assay: Activity against Colleotrichum truncatum in the microtiterplate test; assay type: cell-based; conditions: 168 h, read-out: Observed efficacy
[2] = system: Alternaria solani; conditions: 4 ppm; 7 days after inoculation
[3] = system: Pyricularia oryzae; assay type: cell-based; conditions: 7 days after inoculation
[4] = system: Fusarium culmorum; assay: Activity against Fusarium culmorum in the microtiterplate test; assay type: cell-based; conditions: 0.063 ppm; 7 days after inoculation
[5] = 4 ppm, 7 days after inoculation

SMILES: CC(C)OC(=O)N[C@H](C(=O)N[C@H](C)c1nc2ccc(F)cc2s1)C(C)C [Benthivalicarb, isopropyl {(S)-1-[(1R)-1-(6-fluorobenzothiazol-2-yl)-ethylcarbamoyl]-2-methylpropyl}carbamate]
- inhibition of growth at 4 ppm [1]: 0%
- Observed efficacy [2]: 0%

SMILES: Fc1ccc([C@]2(Cn3cncn3)O[C@H]2c2ccccc2Cl)cc1 (racemic) [Epoxiconazol, (2RS,3SR)-1-[3-(2-chlorophenyl)-2,3-epoxy-2-(4-fluorophenyl)propyl]-1H-1,2,4-triazole]
- Observed efficacy ([3]; 0.063 ppm): 4%
- Observed efficacy ([3]; 1 ppm): 40%

SMILES: CO/N=C(/C1=NOCCO1)c1ccccc1Oc1ncnc(Oc2ccccc2Cl)c1F [Fluoxastrobin, (E)-{2-[6-(2-chlorophenoxy)-5-fluoropyrimidin-4-yloxy]phenyl}(5,6-dihydro-1,4,2-dioxazin-3-yl)methanone O-methyloxime]
- inhibition of growth at 1 ppm ([1]; 7 days after inoculation): 32%

SMILES: Cc1cc(C)nc(Nc2ccccc2)n1 [Pyrimethanil, 4,6-dimethylpyrimidin-2-ylphenylamine]
- inhibition of growth at 4 ppm [1, 5]: 7%

SMILES: CC(C)(C)C(O)(CCc1ccc(Cl)cc1)Cn1cncn1 (stereo not drawn) [Tebuconazole, 1-(4-chlorophenyl)-4,4-dimethyl-3-[1,2,4]triazol-1-ylmethylpentan-3-ol]
- inhibition of growth at 4 ppm [1, 5]: 0%
- Observed efficacy [2]: 0%

SMILES: CC1(C)CCC(Cc2ccc(Cl)cc2)C1(O)Cn1cncn1 (stereo not drawn) [Metconazol, 5-(4-chlorobenzyl)-2,2-dimethyl-1-[1,2,4]triazol-1-ylmethylcyclopentanol]
- Observed efficacy ([3]; 0.063 ppm): 0%
- Observed efficacy ([3]; 0.25 ppm): 5%
- Observed efficacy [4]: 31%

SMILES: CC1(C)CC/C(=C\c2ccc(Cl)cc2)C1(O)Cn1cncn1 (stereo not drawn) [Triticonazol, (5E)-5-[(4-chlorophenyl)methylene]-2,2-dimethyl-1-(1H-1,2,4-triazol-1-ylmethyl)cyclopentanol]
- inhibition of growth at 1 ppm ([1]; 7 days after inoculation): 7%

SMILES: CC(C)NC(=O)N1CC(=O)N(c2cc(Cl)cc(Cl)c2)C1=O [Iprodion, N-isopropyl-3-(3,5-dichlorophenyl)-2,4-dioxoimidazolidine-1-carboxamide]
- inhibition of growth at 1 ppm ([1]; 7 days after inoculation): 7%

SMILES: COC=C(C(=O)OC)c1ccccc1COc1cccc(C(F)(F)F)n1 [Picoxystrobin, methyl 3-methoxy-2-[2-(6-trifluoromethylpyridin-2-yloxymethyl)phenyl]-acrylate]
- inhibition of growth at 0.25 ppm ([1]; 0.25 ppm, 7 days after inoculation): 32%

SMILES: O=C1C2CC=CCC2C(=O)N1SC(Cl)(Cl)Cl (stereo not drawn) [Captan, N-(trichloromethylthio)cyclohex-4-ene-1,2-dicarboximide]
- inhibition of growth at 1 ppm ([1]; 7 days after inoculation): 49%
